The source of these data is BindingDB's records for PubMed 39369480 (Xuzhou Medical University).

Molecules are shown by their SMILES.

The data set is described as follows: Inhibition of P-gp in human K562/A02 cells over expressing P-gp assessed as reversal of multi-drug resistance by measuring ADR IC50 measured after 72 hrs by CCK-8 assay. (In general: Formazan colour is commonly taken as a measure of viable cells.)
What is called IC50 is the concentration needed to halve the response being measured. Turning to `COc1cc2c(cc1OC)CN(CCc1ccc(/N=N/c3ccccc3NC(=O)c3cc(OC)c(OC)c(OC)c3)cc1)CC2`, the IC50 came to 1290 nM.
`COc1cc2c(cc1OC)CN(CCc1ccc(/N=N/c3ccccc3NC(=O)c3ccc(C)cc3)cc1)CC2`: the IC50 worked out at 44 nM.
To `COc1cc2c(cc1OC)CN(CCc1ccc(NC(=O)c3ccccc3/N=N/c3cccc(Cl)c3)cc1)CC2` belongs 84 nM; to `COc1cc2c(cc1OC)CN(CCc1ccc(/N=N/c3ccccc3NC(=O)c3ccc(F)c(F)c3)cc1)CC2`, 108 nM; to `COc1ccccc1/N=N/c1ccccc1C(=O)Nc1ccc(CCN2CCc3cc(OC)c(OC)cc3C2)cc1`, 275 nM.
For the compound `COc1cc2c(cc1OC)CN(CCc1ccc(/N=N/c3ccccc3NC(=O)c3ccccc3[N+](=O)[O-])cc1)CC2`, the IC50 came out at 20 nM.
Take `COc1cc2c(cc1OC)CN(CCc1ccc(NC(=O)c3ccccc3/N=N/c3ccc(Cl)cc3)cc1)CC2`: the IC50 came out at 82 nM.
As to `COc1cccc(C(=O)Nc2ccccc2/N=N/c2ccc(CCN3CCc4cc(OC)c(OC)cc4C3)cc2)c1`, the IC50 was found to be 68 nM.
To `COc1cc2c(cc1OC)CN(CCc1ccc(/N=N/c3ccccc3NC(=O)c3ccccc3)cc1)CC2` belongs 70 nM.
Regarding `COc1ccc(C(=O)Nc2ccccc2C(=O)Nc2ccc(CCN3CCc4cc(OC)c(OC)cc4C3)cc2)cc1OC` [N-(2-(4-(2-(6,7-dimethoxy-3,4-dihydroisoquinolin-2(1H)-yl)ethyl)phenylcarbamoyl)phenyl)-3,4-dimethoxybenzamide], the IC50 came out at 34 nM.
In the case of `COc1cc2c(cc1OC)CN(CCc1ccc(/N=N/c3ccccc3NC(=O)c3ccc(Cl)c(Cl)c3)cc1)CC2`, the IC50 stood at 1600 nM.
On to `COc1cc2c(cc1OC)CN(CCc1ccc(/N=N/c3ccccc3NC(=O)c3cccc([N+](=O)[O-])c3)cc1)CC2`, for which the IC50 turned out to be 50 nM.
Turning to `COc1ccc(C(=O)Nc2ccccc2/N=N/c2ccc(CCN3CCc4cc(OC)c(OC)cc4C3)cc2)cc1`, the IC50 stood at 88 nM.
Under `COc1cc2c(cc1OC)CN(CCc1ccc(/N=N/c3ccccc3NC(=O)c3ccc(Cl)cc3)cc1)CC2` stands 83 nM; under `COc1cc2c(cc1OC)CN(CCc1ccc(/N=N/c3ccccc3NC(=O)c3ccc(C)c(C)c3)cc1)CC2`, 168 nM; under `COc1ccc(C(=O)Nc2ccccc2/N=N/c2ccc(CCN3CCc4cc(OC)c(OC)cc4C3)cc2)cc1OC`, 35 nM.
Under `COc1cc2c(cc1OC)CN(CCc1ccc(/N=N/c3ccccc3NC(=O)c3ccccc3Cl)cc1)CC2` stands 32 nM; under `COc1cc2c(cc1OC)CN(CCc1ccc(/N=N/c3ccccc3NC(=O)c3ccc(C(C)(C)C)cc3)cc1)CC2`, 105 nM; under `COc1cc2c(cc1OC)CN(CCc1ccc(NC(=O)c3ccccc3/N=N/c3ccccc3)cc1)CC2`, 92 nM.
To `COc1cc2c(cc1OC)CN(CCc1ccc(/N=N/c3ccccc3NC(=O)c3ccccc3OC)cc1)CC2` belongs 15 nM; to `COc1cc2c(cc1OC)CN(CCc1ccc(NC(=O)c3ccccc3/N=N/c3ccc(C)cc3)cc1)CC2`, 68 nM; to `COc1cc2c(cc1OC)CN(CCc1ccc(/N=N/c3ccccc3NC(=O)c3ccc([N+](=O)[O-])cc3)cc1)CC2`, 120 nM.
For the compound `COc1cc2c(cc1OC)CN(CCc1ccc(/N=N/c3ccccc3NC(=O)c3cccc(Cl)c3)cc1)CC2`, the IC50 came to 43 nM.
